One block for each compound: values may come before it.
Assays:
Bcs1 (mBcs1) [1] = target: T1, Bcs1 (mBcs1) (Mus musculus, UniProt Q9CZP5); assay: microscale thermophoresis, RED-tris-NTA labelled Bcs1; type: binding
T1 construct: gene Bcs1l; full length residues 1-418, C-terminal hexa-His tag, expressed in Pichia pastoris, purified in DDM, homo-heptamer; reconstituted in soy polar lipid membranes for HS-AFM
T1 sequence (Q9CZP5 1-418): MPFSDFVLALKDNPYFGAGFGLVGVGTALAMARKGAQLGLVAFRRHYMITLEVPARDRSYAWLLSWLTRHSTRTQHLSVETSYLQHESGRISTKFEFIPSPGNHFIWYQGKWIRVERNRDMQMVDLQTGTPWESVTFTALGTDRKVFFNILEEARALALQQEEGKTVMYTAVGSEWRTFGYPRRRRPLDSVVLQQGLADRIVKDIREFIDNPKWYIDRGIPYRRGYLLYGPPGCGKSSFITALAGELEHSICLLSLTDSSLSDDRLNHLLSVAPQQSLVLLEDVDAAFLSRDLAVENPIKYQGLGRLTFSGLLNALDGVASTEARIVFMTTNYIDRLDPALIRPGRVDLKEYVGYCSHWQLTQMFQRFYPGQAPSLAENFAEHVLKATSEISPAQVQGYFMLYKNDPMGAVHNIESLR

Bcs1 (mBcs1) [2] = target: T1, Bcs1 (mBcs1); assay: HS-AFM imaging, probability of AMP-PNP conformation, Hill fit; type: binding
Bcs1 (mBcs1) [3] = target: T1, Bcs1 (mBcs1); assay: HS-AFM imaging, conformational change on binding; details: 10 µM ATPγS; reconstituted membranes; 10 mM HEPES pH 7.5, 200 mM NaCl, 2 mM MgCl2; ambient temperature

Kd (Bcs1 (mBcs1) [1]): ~0.5 µM
SMILES: Nc1ncnc2c1ncn2[C@@H]1O[C@H](COP(=O)(O)OP(=O)(O)O)[C@@H](O)[C@H]1O [ADP]

EC50 (Bcs1 (mBcs1) [2]): ~4 µM
SMILES: Nc1ncnc2c1ncn2[C@@H]1O[C@H](COP(=O)(O)OP(=O)(O)NP(=O)(O)O)[C@@H](O)[C@H]1O [AMP-PNP]

SMILES: Nc1ncnc2c1ncn2[C@@H]1O[C@H](COP(=O)(O)OP(=O)(O)OP(O)(O)=S)[C@@H](O)[C@H]1O [ATPγS]
HS-AFM imaging, conformational change on binding (Bcs1 (mBcs1) [3]): In the presence of ATPγS however, instead of a ring structure, we found a rather flat disk
